Experimental findings from ChEMBL document CHEMBL1147701, “Novel 4-anilinoquinazolines with C-6 carbon-linked side chains: synthesis and structure-activity relationship of a series of potent, orally active, EGF receptor tyrosine kinase inhibitors” (Bioorg Med Chem Lett, 2006) are described below.

For data set [1], the target named is Rho-associated protein kinase 2 (Homo sapiens, UniProt O75116). Kind of data set: Inhibition of ROCK2.
The target in data set [2] is c-Jun N-terminal kinase, JNK (Homo sapiens, UniProt P45983+P53779+P45984). Description: Inhibition of JNK. The class given is protein assay.
Data set [3] in a line: Distribution coefficient, logD of the compound. It is filed as physicochemical. As to conditions: octanol/water.
In data set [4] the target is Proto-oncogene tyrosine-protein kinase Src (Homo sapiens, UniProt P12931). Kind of data set: Inhibition of Src.
The target of data set [5] is Glycogen synthase kinase-3 beta (Homo sapiens, UniProt P49841). Kind of data set: Inhibition of GSK3-beta.
Data set [6] can be described thus: Percent of unbound drug in human plasma. It is filed as ADME, organism-based.
A short description of data set [7]: Solubility in phosphate buffer at pH 7.4. The class given is physicochemical.
In data set [8] the target is T1, Serine/threonine-protein kinase Chk1 (Homo sapiens, UniProt O14757).
T1 sequence (O14757 whole entry): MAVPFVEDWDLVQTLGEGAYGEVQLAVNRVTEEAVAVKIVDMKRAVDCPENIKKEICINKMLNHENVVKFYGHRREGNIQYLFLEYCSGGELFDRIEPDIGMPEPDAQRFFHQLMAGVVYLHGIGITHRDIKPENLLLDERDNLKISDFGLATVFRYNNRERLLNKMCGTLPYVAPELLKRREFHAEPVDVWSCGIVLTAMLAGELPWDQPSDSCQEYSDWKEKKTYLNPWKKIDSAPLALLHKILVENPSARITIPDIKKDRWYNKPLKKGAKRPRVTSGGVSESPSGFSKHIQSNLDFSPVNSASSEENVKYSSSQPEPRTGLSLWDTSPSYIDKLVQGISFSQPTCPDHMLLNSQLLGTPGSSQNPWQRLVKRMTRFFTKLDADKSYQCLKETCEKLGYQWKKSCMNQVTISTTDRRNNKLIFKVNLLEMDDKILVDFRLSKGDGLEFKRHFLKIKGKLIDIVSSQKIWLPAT
Description: Inhibition of CHK1.

Data set [9] in a line: Volume of distribution in dog at 2 mg/kg, po and 1 mg/kg, iv. It is filed as ADME, organism-based, Canis lupus familiaris. The settings on record: in vivo, read-out: Vdss.
Data set [10] has as its target T2, Serine/threonine-protein kinase Sgk1 (Homo sapiens, UniProt O00141).
T2 sequence (O00141 whole entry): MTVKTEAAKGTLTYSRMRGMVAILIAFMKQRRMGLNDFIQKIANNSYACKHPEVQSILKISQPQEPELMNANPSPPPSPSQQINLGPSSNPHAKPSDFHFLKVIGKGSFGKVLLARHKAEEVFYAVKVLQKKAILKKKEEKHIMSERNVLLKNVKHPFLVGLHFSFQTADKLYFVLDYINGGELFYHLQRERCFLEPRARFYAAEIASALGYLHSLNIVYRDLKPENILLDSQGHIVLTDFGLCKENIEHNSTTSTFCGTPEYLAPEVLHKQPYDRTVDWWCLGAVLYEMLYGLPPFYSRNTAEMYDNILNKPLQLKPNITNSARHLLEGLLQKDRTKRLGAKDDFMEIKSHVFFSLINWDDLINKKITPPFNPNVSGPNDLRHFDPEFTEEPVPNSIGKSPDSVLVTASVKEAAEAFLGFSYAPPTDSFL
Description: Inhibition of SGK.

Data set [11] is described as follows: Percent of unbound drug in rat plasma. The class given is ADME, organism-based.
Data set [12] addresses Mitogen-activated protein kinase 1 (Homo sapiens, UniProt P28482). Description: Inhibition of MAPK.
Data set [13] has as its target AMP-activated protein kinase, AMPK. Description: Inhibition of AMPK. It is filed as protein-complex assay.
The nature of data set [14]: Clearance in rat at 5 mg/kg, po and 2 mg/kg, iv. It is filed as ADME, organism-based. As to conditions: in vivo.
Data set [15] in a line: Half life in rat at 5 mg/kg, po and 2 mg/kg, iv. The class given is ADME, organism-based. The settings on record: in vivo.
Data set [16] deals with Vascular endothelial growth factor receptor 2 (Homo sapiens, UniProt P35968).
A short description of data set [17]: Half life in dog at 2 mg/kg, po and 1 mg/kg, iv. The class given is ADME, organism-based, Canis lupus familiaris. As to conditions: in vivo.
A short description of data set [18]: Percent of unbound drug in dog plasma. The class given is ADME, organism-based, Canis lupus familiaris.
Data set [19] in a line: Volume of distribution in rat at 5 mg/kg, po and 2 mg/kg, iv. The class given is ADME, organism-based. The settings on record: in vivo, read-out: Vdss.
A short description of data set [20]: Bioavailability in rat at 5 mg/kg, po and 2 mg/kg, iv. The settings on record: in vivo. The class given is ADME, organism-based.
Data set [21] in a line: Inhibition of CDK.
The target in data set [22] is Tyrosine-protein kinase Lck (Homo sapiens, UniProt P06239).
Data set [23] in a line: Bioavailability in dog at 2 mg/kg, po and 1 mg/kg, iv. The class given is ADME, organism-based, Canis lupus familiaris. As to conditions: in vivo.
Data set [24] in a line: Apparent permeability from apical to basolateral side of the Caco-2 cell. The class given is ADME, cell-based. The settings on record: human, read-out: permeability.
The nature of data set [25]: Inhibition of P450. The class given is ADME.
Data set [26] has as its system LoVo. Kind of data set: Antitumor activity against human LoVo cell line xenografted in athymic mouse at 25 mg/kg/day after 18 days. As to conditions: 432 h. It is filed as functional.
Data set [27] deals with cAMP-dependent protein kinase (PKA) (Homo sapiens, UniProt P22694+P17612+P22612). Description: Inhibition of PKA. It is filed as protein assay.
The nature of data set [28]: Clearance in dog at 2 mg/kg, po and 1 mg/kg, iv. The class given is ADME, organism-based, Canis lupus familiaris. As to conditions: in vivo.
Data set [29] concerns the target MAP kinase p38 (Homo sapiens, UniProt O15264+Q15759+Q16539+P53778).
Data set [30] is described as follows: Dissociation constant, pKa of the compound. The class given is physicochemical.
Data set [31] relates to LoVo. Description: Antitumor activity against human LoVo cell line xenografted in athymic mouse at 50 mg/kg/day after 13 days. The class given is functional. As to conditions: 312 h. On the technique in general: A xenograft is tissue or cells of one species grown in another, often human tumour cells in immunodeficient mice.

≈ marks a conversion by molar mass, not a printed value.

Sequence of Mitogen-activated protein kinase 1 (P28482 whole entry): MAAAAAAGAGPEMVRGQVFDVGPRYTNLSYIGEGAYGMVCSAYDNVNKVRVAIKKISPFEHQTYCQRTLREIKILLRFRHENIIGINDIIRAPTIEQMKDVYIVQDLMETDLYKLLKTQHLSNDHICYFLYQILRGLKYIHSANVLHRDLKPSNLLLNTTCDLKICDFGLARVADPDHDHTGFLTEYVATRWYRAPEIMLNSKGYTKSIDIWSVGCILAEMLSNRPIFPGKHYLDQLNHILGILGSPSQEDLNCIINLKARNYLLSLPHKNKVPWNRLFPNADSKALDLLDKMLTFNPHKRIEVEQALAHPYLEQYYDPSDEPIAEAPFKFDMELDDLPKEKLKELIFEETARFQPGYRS
Sequence of Rho-associated protein kinase 2 (O75116 whole entry): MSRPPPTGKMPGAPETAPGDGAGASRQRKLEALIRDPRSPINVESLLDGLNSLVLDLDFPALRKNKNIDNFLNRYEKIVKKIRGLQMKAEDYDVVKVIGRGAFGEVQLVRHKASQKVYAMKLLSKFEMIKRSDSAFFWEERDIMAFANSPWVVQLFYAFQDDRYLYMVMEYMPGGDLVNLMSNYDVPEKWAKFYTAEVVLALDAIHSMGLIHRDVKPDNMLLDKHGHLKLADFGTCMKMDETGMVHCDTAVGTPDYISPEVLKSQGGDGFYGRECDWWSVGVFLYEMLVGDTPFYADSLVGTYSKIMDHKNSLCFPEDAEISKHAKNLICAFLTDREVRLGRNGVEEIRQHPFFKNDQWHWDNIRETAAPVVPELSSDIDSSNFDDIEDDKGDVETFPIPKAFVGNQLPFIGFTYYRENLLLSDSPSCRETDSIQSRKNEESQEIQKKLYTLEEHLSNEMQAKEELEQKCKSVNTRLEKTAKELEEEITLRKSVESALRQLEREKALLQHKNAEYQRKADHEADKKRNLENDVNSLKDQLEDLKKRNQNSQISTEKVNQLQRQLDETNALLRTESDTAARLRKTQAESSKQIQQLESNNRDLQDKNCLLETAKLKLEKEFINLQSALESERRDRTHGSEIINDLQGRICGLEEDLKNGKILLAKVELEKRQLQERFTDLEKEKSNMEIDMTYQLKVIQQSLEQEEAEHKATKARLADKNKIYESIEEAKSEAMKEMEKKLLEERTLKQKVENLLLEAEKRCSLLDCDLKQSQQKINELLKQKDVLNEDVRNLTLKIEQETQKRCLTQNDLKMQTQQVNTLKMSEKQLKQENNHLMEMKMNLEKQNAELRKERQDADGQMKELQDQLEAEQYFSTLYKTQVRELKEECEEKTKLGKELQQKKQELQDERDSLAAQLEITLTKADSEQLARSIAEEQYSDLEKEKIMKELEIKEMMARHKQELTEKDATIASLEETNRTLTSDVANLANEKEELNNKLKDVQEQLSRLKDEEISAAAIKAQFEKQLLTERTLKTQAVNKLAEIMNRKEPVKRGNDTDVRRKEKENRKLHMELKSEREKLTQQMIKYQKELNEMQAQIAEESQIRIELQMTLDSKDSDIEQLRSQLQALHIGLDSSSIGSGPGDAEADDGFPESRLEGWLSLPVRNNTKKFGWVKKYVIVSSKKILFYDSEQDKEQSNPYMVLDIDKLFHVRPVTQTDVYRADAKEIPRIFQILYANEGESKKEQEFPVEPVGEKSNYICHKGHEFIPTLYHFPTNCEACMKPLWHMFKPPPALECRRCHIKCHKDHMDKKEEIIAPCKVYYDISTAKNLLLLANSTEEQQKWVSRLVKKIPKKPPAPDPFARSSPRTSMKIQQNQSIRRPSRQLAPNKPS
Sequence of Vascular endothelial growth factor receptor 2 (P35968 whole entry): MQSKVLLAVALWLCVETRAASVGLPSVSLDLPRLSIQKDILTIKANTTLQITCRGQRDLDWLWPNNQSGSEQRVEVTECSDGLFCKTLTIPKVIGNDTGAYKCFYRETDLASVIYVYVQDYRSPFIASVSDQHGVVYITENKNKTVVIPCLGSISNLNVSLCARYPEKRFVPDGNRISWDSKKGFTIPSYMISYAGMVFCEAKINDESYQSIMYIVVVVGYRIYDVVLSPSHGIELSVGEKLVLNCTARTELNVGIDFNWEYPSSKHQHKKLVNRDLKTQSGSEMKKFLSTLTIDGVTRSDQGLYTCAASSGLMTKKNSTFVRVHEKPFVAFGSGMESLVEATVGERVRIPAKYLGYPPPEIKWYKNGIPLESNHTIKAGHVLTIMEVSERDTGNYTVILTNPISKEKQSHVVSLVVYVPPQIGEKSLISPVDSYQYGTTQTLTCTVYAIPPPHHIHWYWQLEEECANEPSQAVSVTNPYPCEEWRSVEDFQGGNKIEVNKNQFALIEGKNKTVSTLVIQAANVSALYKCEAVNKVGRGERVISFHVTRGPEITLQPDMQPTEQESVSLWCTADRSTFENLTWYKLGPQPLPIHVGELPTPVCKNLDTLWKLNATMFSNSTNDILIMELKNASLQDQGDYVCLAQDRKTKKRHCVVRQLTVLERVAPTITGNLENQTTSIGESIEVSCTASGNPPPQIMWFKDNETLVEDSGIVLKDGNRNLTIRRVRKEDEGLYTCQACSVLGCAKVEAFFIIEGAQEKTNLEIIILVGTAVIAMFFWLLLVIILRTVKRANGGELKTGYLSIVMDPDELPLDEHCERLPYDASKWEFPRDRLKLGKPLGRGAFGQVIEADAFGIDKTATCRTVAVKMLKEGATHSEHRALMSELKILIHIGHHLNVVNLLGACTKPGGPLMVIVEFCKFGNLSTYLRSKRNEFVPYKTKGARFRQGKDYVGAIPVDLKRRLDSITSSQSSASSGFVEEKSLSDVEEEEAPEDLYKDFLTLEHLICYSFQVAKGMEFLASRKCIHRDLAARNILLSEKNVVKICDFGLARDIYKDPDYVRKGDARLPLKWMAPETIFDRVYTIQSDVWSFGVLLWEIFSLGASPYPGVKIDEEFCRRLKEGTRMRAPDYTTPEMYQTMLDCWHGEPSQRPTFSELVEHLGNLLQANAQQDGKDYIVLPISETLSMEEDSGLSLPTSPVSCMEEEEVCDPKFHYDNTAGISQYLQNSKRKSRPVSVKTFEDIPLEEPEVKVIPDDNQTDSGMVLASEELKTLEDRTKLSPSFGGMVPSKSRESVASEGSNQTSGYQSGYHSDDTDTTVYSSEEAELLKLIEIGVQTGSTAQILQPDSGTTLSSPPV
Sequence of Proto-oncogene tyrosine-protein kinase Src (P12931 2-536 limits assumed): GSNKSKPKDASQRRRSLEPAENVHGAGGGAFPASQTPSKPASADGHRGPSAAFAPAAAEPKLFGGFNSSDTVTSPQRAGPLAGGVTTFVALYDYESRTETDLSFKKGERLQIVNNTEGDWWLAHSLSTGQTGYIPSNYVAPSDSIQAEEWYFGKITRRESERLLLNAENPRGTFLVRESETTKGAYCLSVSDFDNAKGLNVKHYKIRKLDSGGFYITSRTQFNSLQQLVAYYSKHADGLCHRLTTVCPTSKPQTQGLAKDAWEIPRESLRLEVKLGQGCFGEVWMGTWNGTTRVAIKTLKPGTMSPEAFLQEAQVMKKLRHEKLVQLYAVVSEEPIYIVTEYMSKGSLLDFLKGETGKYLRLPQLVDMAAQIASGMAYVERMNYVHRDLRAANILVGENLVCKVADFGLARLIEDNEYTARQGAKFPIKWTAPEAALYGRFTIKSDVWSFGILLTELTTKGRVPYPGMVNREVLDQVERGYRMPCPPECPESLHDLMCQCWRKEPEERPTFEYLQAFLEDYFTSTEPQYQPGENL
Sequence of Glycogen synthase kinase-3 beta (P49841 whole entry): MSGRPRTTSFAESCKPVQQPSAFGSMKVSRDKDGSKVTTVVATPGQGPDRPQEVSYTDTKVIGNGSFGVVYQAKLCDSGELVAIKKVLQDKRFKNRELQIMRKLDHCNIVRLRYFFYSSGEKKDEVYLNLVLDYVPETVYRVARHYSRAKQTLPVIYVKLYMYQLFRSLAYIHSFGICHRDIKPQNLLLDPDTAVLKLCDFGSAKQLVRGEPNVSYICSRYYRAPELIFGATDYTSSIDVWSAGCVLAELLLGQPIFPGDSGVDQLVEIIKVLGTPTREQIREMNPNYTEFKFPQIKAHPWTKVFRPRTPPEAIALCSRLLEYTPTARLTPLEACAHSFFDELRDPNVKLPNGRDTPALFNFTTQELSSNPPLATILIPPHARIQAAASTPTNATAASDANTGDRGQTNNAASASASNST
Sequence of Tyrosine-protein kinase Lck (P06239 whole entry): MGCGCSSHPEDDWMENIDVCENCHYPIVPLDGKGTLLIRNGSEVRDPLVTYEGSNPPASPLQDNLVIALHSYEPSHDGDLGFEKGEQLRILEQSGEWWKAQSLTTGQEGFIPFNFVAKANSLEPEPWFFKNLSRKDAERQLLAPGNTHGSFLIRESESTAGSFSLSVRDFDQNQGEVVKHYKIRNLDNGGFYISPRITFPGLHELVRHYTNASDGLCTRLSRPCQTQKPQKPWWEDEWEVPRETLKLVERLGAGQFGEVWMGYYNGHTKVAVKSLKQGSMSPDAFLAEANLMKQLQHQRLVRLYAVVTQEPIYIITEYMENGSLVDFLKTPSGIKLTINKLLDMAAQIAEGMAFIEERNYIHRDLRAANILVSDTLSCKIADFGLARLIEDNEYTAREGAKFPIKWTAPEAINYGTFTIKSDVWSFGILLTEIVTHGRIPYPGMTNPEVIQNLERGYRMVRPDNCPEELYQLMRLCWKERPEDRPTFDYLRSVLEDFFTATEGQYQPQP

In the case of `COc1cc2ncnc(Nc3cccc(Cl)c3F)c2cc1CN1CCC[C@H]1C(N)=O`, the IC50 in [1], in data set [2], in data set [4], in [5], in [8] and in data set [10] was above 10 µM each time. Besides, the concentration for half-maximal inhibition (IC50) in data set [12], in data set [13], in [16], in data set [21], in data set [22] and in data set [25] was above 10 µM in each case. Moreover, in [27], the IC50 (commonly the midpoint of a concentration-inhibition curve) was above 10 µM. Besides, the logD (usually lipophilicity at a set pH, counting ionised and neutral species) in data set [3] was 3.6. For the same compound, the figures for the fraction unbound in [6], in data set [11] and in data set [18] were 0.05, 0.037 and 0.01, respectively. For the same compound, in [7], the concentration in solution (solubility) came to 260 µM (≈ 112 µg/mL). Besides, the Vd in data set [9] stood at 0.4 L/kg; in data set [19], 0.7 L/kg. Also, the clearance in data set [14] was determined as 3 mL/min/kg; in data set [28] it was 5 mL/min/kg. Moreover, the half-life (in general, the time needed for the level to fall by half in the phase considered) in data set [15] is 6.6 h; in data set [17], 0.7 h. The bioavailability in [20] came out at 111%; in data set [23] it was 88%. In addition, the Papp A→B in [24] is above 13 ×10⁻⁶ cm/s. Further, the inhibition in vivo (commonly the change of the read-out against control, counted positive when it falls) at 25 mg/kg/day in data set [26] turned out to be 43%.
`COc1cc2ncnc(Nc3cccc(Cl)c3F)c2cc1CN(C)[C@H](C)C(N)=O`: the IC50 in data set [1], in data set [2], in data set [4], in data set [5], in [8] and in [29] was above 10 µM each time. For the same compound, the IC50 in data set [10], in data set [12], in data set [13], in [16], in [21] and in [22] was above 10 µM in each case. Moreover, the IC50 in [25] and in data set [27] was above 10 µM each time. In data set [3], this compound displayed a logD of 3.4. In addition, the fraction unbound (commonly free concentration divided by total concentration) was found to be 0.05 in data set [6], 0.06 in [11] and 0.01 in data set [18]. Besides, the solubility (as a rule, the dissolved amount per volume that the medium holds) in [7] was 40 µM (≈ 16.7 µg/mL). The clearance in [14] came out at 6 mL/min/kg. In data set [15], this compound gave a half-life of 4.3 h. Also, in [19], the Vd stood at 0.6 L/kg. In addition, in data set [20], the bioavailability was 58%. Further, the pKa – broadly, the pH at which an ionisable group is half protonated – in data set [30] was found to be 6.8. Further, the Papp A→B in data set [24] is above 13 ×10⁻⁶ cm/s. Also, the inhibition in vivo at 25 mg/kg/day in data set [26] was found to be 37%.
For the compound `COc1cc2ncnc(Nc3cccc(Cl)c3F)c2cc1CN(C(C)C)[C@@H](C)C(N)=O`, the IC50 in data set [1], in data set [2], in data set [4], in [5], in data set [8] and in [10] was above 10 µM in each case. The IC50 in data set [12], in [13], in data set [16] and in data set [27] was above 10 µM throughout. The compound further registered a solubility in data set [7] of 1 µM (≈ 0.446 µg/mL).
Turning to `COc1cc2ncnc(Nc3cccc(Cl)c3F)c2cc1CN(C)[C@@H](C)C(N)=O`, the IC50 in [1], in data set [2], in data set [4], in [5], in data set [8] and in [29] was above 10 µM throughout. Also, the concentration for half-maximal inhibition (IC50) in data set [10], in data set [12], in data set [13], in [16], in data set [21] and in [22] was above 10 µM throughout. The IC50 in [25] and in [27] was above 10 µM in each case. This compound registered an inhibition in vivo at 50 mg/kg/day in data set [31] of 60%. In addition, in data set [3], the logD stood at 3.4. Besides, the fraction unbound stood at 0.05 in data set [6], 0.065 in data set [11] and 0.01 in data set [18]. In data set [7], the solubility amounted to 40 µM (≈ 16.7 µg/mL). For the same compound, the values for the Vd in data set [9] and in [19] were 0.4 L/kg and 0.8 L/kg, respectively. The figures for the clearance in data set [14] and in data set [28] were 12 mL/min/kg and 14 mL/min/kg, respectively. In addition, the results for the half-life in data set [15] and in [17] were 4.8 h and 0.4 h, respectively. Further, the results for the bioavailability in [20] and in [23] were 75% and 63%, respectively. In data set [24], the Papp A→B is above 13 ×10⁻⁶ cm/s.
